Converted amounts (≈) assume the structure as drawn. Structures can show the parent of a compound that is named as a salt. Where two headings read alike, the source gives them in different places.
Assays:
[1] = tested on: STREPTOCOCCUS PYOGENES 2548 INDUC; experiment: In vitro MIC, agar dilution (BHIA); assay type: cell-based
[2] = tested on: MICROCOCCUS LUTEUS ATCC 4698; experiment: In vitro MIC, agar dilution (BHIA); assay type: cell-based
ESCHERICHIA COLI JUHL = experiment: In vitro MIC, agar dilution (BHIA); assay type: cell-based
[3] = tested on: STREPTOCOCCUS PYOGENES EES61; experiment: In vitro MIC, agar dilution (BHIA); assay type: cell-based
[4] = tested on: PSEUDOMONAS AERUGINOSA K799/WT; experiment: In vitro MIC, agar dilution (BHIA); assay type: cell-based
[5] = tested on: PSEUDOMONAS AERUGINOSA A5007; experiment: In vitro MIC, agar dilution (BHIA); assay type: cell-based
[6] = tested on: PSEUDOMONAS AERUGINOSA K799/61; experiment: In vitro MIC, agar dilution (BHIA); assay type: cell-based
[7] = tested on: STREPTOCOCCUS PYOGENES 930 CONST; experiment: In vitro MIC, agar dilution (BHIA); assay type: cell-based
[8] = tested on: ENTEROCOCCUS FAECIUM ATCC 8043; experiment: In vitro MIC, agar dilution (BHIA); assay type: cell-based
ESCHERICHIA COLI H560 = experiment: In vitro MIC, agar dilution (BHIA); assay type: cell-based
Excerpt: (§1) The MIC results are in ug/ml.

[9] = tested on: KLEBSIELLA PNEUMONIAE ATCC 8045; experiment: In vitro MIC, agar dilution (BHIA); assay type: cell-based
PSEUDOMONAS CEPACIA 296I = experiment: In vitro MIC, agar dilution (BHIA); assay type: cell-based
[10] = Conversion of prodrug to parent drug in whole blood at 37° C.; assay type: in vitro ADME, Human
Experimental: (§2) An aqueous solution of prodrug (Z) is spiked into fresh whole blood containing sodium heparin as an anticoagulant. The sample is mixed gently by inversion and placed in a 37° waterbath. At selected time intervals an 0.5 ml aliquot of blood is removed and placed in a chilled 1.5 ml centrifuge tube (ice temperature). Samples are centrifuges at 13,000 rpm for two minutes to separate plasma. An 0.2 ml aliquot of the plasma sample is combined with 0.2 ml internal standard (7-(4-amino-2-methyl-1-pyrrolidinyl)-1-(2,4-difluorophenyl)-6-fluoro-1,4-d ihydro-4-oxo-1,8-naphthyridine-3-carboxylic acid in 0.2M sodium phosphate pH 7.2 buffer) and 6 mls CH2 Cl2 :EtoH (9:1 by volume). Samples are capped and shaken gently for 10 minutes. Samples are centrifuges at 2500 rpm for 10 minutes (4° C.). The aqueous layer is aspirated to waste and the organic layer is transferred to a conical centrifuge tube and evaporated to dryness with a stream of dry air and low heat ([…]). Samples are reconstituted with 0.2 ml mobile phase followed by vortexing. Samples are centrifuges at 2500 rpm for 10 minutes to separate precipitate. The supernatant is transferred to a WISP vial with plastic insert for HPLC analysis.

[11] = tested on: STREPTOCOCCUS BOVIS A5169; experiment: In vitro MIC, agar dilution (BHIA); assay type: cell-based
[12] = tested on: STREPTOCOCCUS AGALACTIAE CMX 508; experiment: In vitro MIC, agar dilution (BHIA); assay type: cell-based
[13] = Conversion of prodrug to parent drug in whole blood at 37° C.; assay type: in vitro ADME, Rat
Experimental: as §2

[14] = tested on: PSEUDOMONAS AERUGINOSA BMH10; experiment: In vitro MIC, agar dilution (BHIA); assay type: cell-based
[15] = tested on: MICROCOCCUS LUTEUS ATCC 9341; experiment: In vitro MIC, agar dilution (BHIA); assay type: cell-based
E. Coli Juhl [16] = experiment: Acute mouse protection test; assay type: in vivo; details: mice infected i.p. with E. Coli JUHL, observed 7 days; for SC (ED50): SC dosing at 1 and 5 hours post-infection; for Oral (ED50): oral dosing at 1 and 5 hours post-infection
ACINETOBACTER SP CMX 669 = experiment: In vitro MIC, agar dilution (BHIA); assay type: cell-based
ESCHERICHIA COLI SS = experiment: In vitro MIC, agar dilution (BHIA); assay type: cell-based
Excerpt: as §1

Stap. Aureus NCTC 10649 = experiment: Acute mouse protection test; assay type: in vivo; details: mice infected i.p. with Stap. Aureus NCTC 10649, observed 7 days; for SC (ED50): SC dosing at 1 and 5 hours post-infection; for Oral (ED50): oral dosing at 1 and 5 hours post-infection
[17] = tested on: PROVIDENCIA STUARTII CMX 640; experiment: In vitro MIC, agar dilution (BHIA); assay type: cell-based
P. Aeruginosa A5007 = experiment: Acute mouse protection test; assay type: in vivo; details: mice infected i.p. with P. Aeruginosa A5007, observed 7 days; for SC (ED50): SC dosing at 1 and 5 hours post-infection; for Oral (ED50): oral dosing at 1 and 5 hours post-infection
[18] = Conversion of prodrug to parent drug in whole blood at 37° C.; assay type: in vitro ADME, Dog
Experimental: as §2

Strep. pyogenes EES 61 = experiment: Second in vitro MIC test, Brain Heart Infusion Broth (BHIB); assay type: cell-based
Ps. Aeruginosa A5007 = experiment: as above; assay type: cell-based
Stap. Aureus CMX 553 = experiment: Second in vitro MIC test, Brain Heart Infusion Broth (BHIB); assay type: cell-based
E. Coli Juhl [19] = experiment: as above; assay type: cell-based

Compound: 7-[3-Norvaline-amino-1-pyrrolidinyl]-1-(2,4-difluorophenyl)-6-fluoro-1,4-di hydro-4-oxo-1,8-naphthyridine-3-carboxylic acid hydrochloride [Example 2b]
- MIC [1]: .39 mg/L
- MIC [2]: 25 mg/L
- MIC (ESCHERICHIA COLI JUHL): .78 mg/L
- MIC ([3]; STREPTOCOCCUS PYOGENES EES61): 1.56 mg/L
- MIC [4]: 6.2 mg/L
- MIC [5]: 12.5 mg/L
- MIC [6]: .39 mg/L
- MIC [7]: .78 mg/L
- MIC [8]: .78 mg/L
- MIC (ESCHERICHIA COLI H560): .78 mg/L
- MIC [9]: .39 mg/L
- MIC (PSEUDOMONAS CEPACIA 296I): 50 mg/L
- Half Life Human [10]: 75.5 s
- MIC ([11]; STREPTOCOCCUS BOVIS A5169): 1.56 mg/L
- MIC ([12]; STREPTOCOCCUS AGALACTIAE CMX 508): 1.56 mg/L
- Half Life Rat [13]: 40.7 s
- MIC [14]: 6.2 mg/L
- MIC [15]: 25 mg/L

Compound: NCC(=O)N[C@@H](Cc1ccccc1)C(=O)NC1CCN(c2nc3c(cc2F)c(=O)c(C(=O)O)cn3-c2ccc(F)cc2F)C1 (stereo partly drawn) [Example 1b, 7-[(3-Gly-L-Phe-amino)-1-pyrrolidinyl]-1-(2,4-difluorophenyl)-6-fluoro-1,4-dihydro-4-oxo-1,8-naphthyridine-3-carb oxylic acid hydrochloride]
- MIC [1]: .78 mg/L
- MIC [2]: .78 mg/L
- MIC ([3]; STR[…] EES61): 1.56 mg/L
- MIC [4]: 25 mg/L
- MIC [5]: 25 mg/L
- MIC [6]: 12.5 mg/L
- SC (ED50) (E. Coli Juhl [16]): 0.6 mg/kg/day
- Oral (ED50) (E. Coli Juhl [16]): 1.8 mg/kg/day
- MIC (ACINETOBACTER SP CMX 669): 12.5 mg/L
- MIC [7]: .78 mg/L
- MIC (ESCHERICHIA COLI SS): .2 mg/L
- MIC (ESCHERICHIA COLI H560): 1.56 mg/L
- MIC [9]: 12.5 mg/L
- MIC (PSEUDOMONAS CEPACIA 296I): 50 mg/L
- MIC ([11]; STR[…] A5169): 1.56 mg/L
- MIC ([12]; STR[…] 508): 1.56 mg/L
- MIC [14]: 25 mg/L
- SC (ED50) (Stap. Aureus NCTC 10649): 0.5 mg/kg/day
- Oral (ED50) (Stap. Aureus NCTC 10649): 0.7 mg/kg/day
- MIC [17]: 100 mg/L
- SC (ED50) (P. Aeruginosa A5007): 8.0 mg/kg/day
- Oral (ED50) (P. Aeruginosa A5007): 27.3 mg/kg/day
- MIC [15]: 6.25 mg/L

Compound: CCC[C@H](NC(=O)[C@@H](N)CCC)C(=O)NC1CCN(c2nc3c(cc2F)c(=O)c(C(=O)O)cn3-c2ccc(F)cc2F)C1 (stereo partly drawn) [Example 3b, 7-(3-L-Norvaline-L-Norvalineamino-1-pyrrolidinyl)-1-(2,4-difluorophenyl)-6-fluoro-1,4-dihydro-4-oxo-1,8-naphthyridine-3-carboxylic acid hydrochloride]
- Half Life Dog ([18]; conversion to parent drug in dog whole blood at 37° C., seconds): 86.5 s
- MIC (Strep. pyogenes EES 61): 12.5 mg/L
- SC (ED50) (E. Coli Juhl [16]): 0.5 mg/kg/day
- Oral (ED50) (E. Coli Juhl [16]): 4.0 mg/kg/day
- Half Life Human ([10]; conversion to parent drug in human whole blood at 37° C., minutes): 2.1 m
- Half Life Rat ([13]; conversion to parent drug in rat whole blood at 37° C., seconds): 51.5 s
- SC (ED50) (Stap. Aureus NCTC 10649): 0.5 mg/kg/day
- Oral (ED50) (Stap. Aureus NCTC 10649): 1.8 mg/kg/day
- SC (ED50) (P. Aeruginosa A5007): 6.2 mg/kg/day
- Oral (ED50) (P. Aeruginosa A5007): 9.1 mg/kg/day

Compound: NC(Cc1ccc(O)cc1)C(=O)NC1CCN(c2nc3c(cc2F)c(=O)c(C(=O)O)cn3-c2ccc(F)cc2F)C1 (stereo not shown) [Example 13]
- MIC (Ps. Aeruginosa A5007): 50 mg/L (≈ 88.1 µM)
- MIC (Strep. pyogenes EES 61): 12.5 mg/L (≈ 22 µM)
- Solubility pH 7.4: 0.06 mg/ml
- MIC (Stap. Aureus CMX 553): 12.5 mg/L (≈ 22 µM)
- SC (ED50) (Stap. Aureus NCTC 10649): 0.4 mg/kg/day
- Oral (ED50) (Stap. Aureus NCTC 10649): 1.7 mg/kg/day
- MIC (E. Coli Juhl [19]): 12.5 mg/L (≈ 22 µM)
- SC (ED50) (P. Aeruginosa A5007): 9.1 mg/kg/day
- Oral (ED50) (P. Aeruginosa A5007): 15.1 mg/kg/day

Compound: CC(C)CC(N)C(=O)NC1CCN(c2nc3c(cc2F)c(=O)c(C(=O)O)cn3-c2ccc(F)cc2F)C1 (stereo not shown) [Example 21]
- MIC (Ps. Aeruginosa A5007): 25 mg/L (≈ 48.3 µM)
- Half Life Dog [18]: 55.8 s
- MIC (Strep. pyogenes EES 61): 6.2 mg/L (≈ 12 µM)
- Solubility pH 7.4: 0.14 mg/ml
- MIC (Stap. Aureus CMX 553): 1.56 mg/L (≈ 3.01 µM)
- SC (ED50) (Stap. Aureus NCTC 10649): 0.5 mg/kg/day
- Oral (ED50) (Stap. Aureus NCTC 10649): 2.4 mg/kg/day
- MIC (E. Coli Juhl [19]): 1.56 mg/L (≈ 3.01 µM)
- SC (ED50) (P. Aeruginosa A5007): 3.9 mg/kg/day
- Oral (ED50) (P. Aeruginosa A5007): 12.5 mg/kg/day

Compound: O=C(O)c1cn(-c2ccc(F)cc2F)c2nc(N3CCC(NC(=O)C4CCCN4)C3)c(F)cc2c1=O (stereo not shown) [Example 28]
- MIC (Ps. Aeruginosa A5007): 12.5 mg/L (≈ 24.9 µM)
- Half Life Dog [18]: 41 m
- MIC (Strep. pyogenes EES 61): 1.56 mg/L (≈ 3.11 µM)
- MIC (Stap. Aureus CMX 553): 1.56 mg/L (≈ 3.11 µM)
- SC (ED50) (Stap. Aureus NCTC 10649): 0.5 mg/kg/day
- Oral (ED50) (Stap. Aureus NCTC 10649): 3.2 mg/kg/day
- MIC (E. Coli Juhl [19]): 1.56 mg/L (≈ 3.11 µM)
- SC (ED50) (P. Aeruginosa A5007): 3.1 mg/kg/day
- Oral (ED50) (P. Aeruginosa A5007): 51.3 mg/kg/day

Compound: NC1CCN(c2nc3c(cc2F)c(=O)c(C(=O)O)cn3-c2ccc(F)cc2F)C1 (stereo not shown) [tosufloxacin, 7-(3-amino-1-pyrrolidinyl)-6-fluoro,1-(2,4-difluorophenyl)-1,4-dihydro-4-o xo-1,8-naphthyridine 3-carboxylic acid, reference compound]
- MIC ([2]; ATCC4698, read-out: MIC): 0.78 mg/L (≈ 1.93 µM)
- MIC ([4]; read-out: MIC): 0.78 mg/L (≈ 1.93 µM)
- MIC ([5]; read-out: MIC): 0.78 mg/L (≈ 1.93 µM)
- SC (ED50) (E. Coli Juhl [16]): 0.2 mg/kg/day
- Oral (ED50) (E. Coli Juhl [16]): 0.9 mg/kg/day
- MIC (PSEUDOMONAS CEPACIA 296I; Burkholderia cepacia, read-out: MIC): 3.1 mg/L (≈ 7.67 µM)
- SC (ED50) (Stap. Aureus NCTC 10649): 0.6 mg/kg/day
- Oral (ED50) (Stap. Aureus NCTC 10649): 1.5 mg/kg/day
- MIC ([17]; read-out: MIC): 1.56 mg/L (≈ 3.86 µM)
- SC (ED50) (P. Aeruginosa A5007): > 25 mg/kg/day
- Oral (ED50) (P. Aeruginosa A5007): 6.2 mg/kg/day
- MIC ([15]; ATCC9341, read-out: MIC): 1.56 mg/L (≈ 3.86 µM)

— patent publication US5057520A, “7-(peptidylpyrolidinyl)naphthyridine antibacterial compounds” (Abbott Laboratories, priority 1989, dated 1991)
